The source of these data is patent US10059701B2 (Merck Patent GmbH, priority 2015, dated 2018).

The target of one experiment is T1, IRAK1 (Homo sapiens, UniProt P51617).
T1 construct: His-TEV-IRAK1 (194-712); His (N); TEV cleavage site (N)
Briefly: IRAK1 enzymatic assay (ADP-Glo luminescence). As to conditions: purified human recombinant His-TEV-IRAK1 (194-712). Format: biochemical. In short, it runs like this:
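Recombinant human His-TEV-IRAK1 (194-712), 0.3 μg/ml, preincubated 15 min at RT with compounds (10 μM to 0.5 nM) in 50 mM Hepes pH 7.0, 10 mM MgCl2, 2 mM DTT, 0.1% BSA. ATP-started reaction run 2 hours at RT; ADP formed from ATP hydrolysis/autophosphorylation read by ADP-Glo luminescence.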
For orientation: ADP-Glo first removes unused ATP, then detects ADP through luciferase.

For a further experiment, the target named is T2, IRAK4 (Homo sapiens, UniProt Q9NWZ3).
T2 construct: His-TEV-IRAK4 (1-460); His (N); TEV cleavage site (N)
T2 sequence (Q9NWZ3 1-460): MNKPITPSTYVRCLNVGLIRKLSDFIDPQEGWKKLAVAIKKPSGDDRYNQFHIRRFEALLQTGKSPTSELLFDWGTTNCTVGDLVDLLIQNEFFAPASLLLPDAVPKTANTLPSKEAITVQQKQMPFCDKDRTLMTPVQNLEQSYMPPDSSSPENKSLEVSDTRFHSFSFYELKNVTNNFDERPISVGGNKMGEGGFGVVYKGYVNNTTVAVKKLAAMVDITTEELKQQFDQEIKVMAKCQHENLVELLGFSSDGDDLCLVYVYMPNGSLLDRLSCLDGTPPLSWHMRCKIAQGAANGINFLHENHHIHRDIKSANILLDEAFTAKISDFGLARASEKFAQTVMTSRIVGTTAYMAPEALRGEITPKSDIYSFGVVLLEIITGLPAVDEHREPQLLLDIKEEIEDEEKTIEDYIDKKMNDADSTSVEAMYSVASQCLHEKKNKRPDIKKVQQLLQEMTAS
Briefly: IRAK4 enzymatic assay (ADP-Glo luminescence). The experiment is classed as biochemical. Particulars: purified human recombinant His-TEV-IRAK4 (1-460), ATP 2 μM. In short, it runs like this: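 Recombinant His-TEV-IRAK4 (1-460) at 0.3 μg/ml preincubated 15 min at RT with compounds (10 μM to 0.5 nM) in Hepes pH 7.0 buffer with MgCl2/MnCl2. Reaction started with 2 μM ATP and 300 nM STK1-biotin peptide, run 2 h at RT. ADP formed read by ADP-Glo luminescence.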

A word on the IC50: it is the concentration at which inhibition is half-maximal.

T1 sequence (P51617 194-712): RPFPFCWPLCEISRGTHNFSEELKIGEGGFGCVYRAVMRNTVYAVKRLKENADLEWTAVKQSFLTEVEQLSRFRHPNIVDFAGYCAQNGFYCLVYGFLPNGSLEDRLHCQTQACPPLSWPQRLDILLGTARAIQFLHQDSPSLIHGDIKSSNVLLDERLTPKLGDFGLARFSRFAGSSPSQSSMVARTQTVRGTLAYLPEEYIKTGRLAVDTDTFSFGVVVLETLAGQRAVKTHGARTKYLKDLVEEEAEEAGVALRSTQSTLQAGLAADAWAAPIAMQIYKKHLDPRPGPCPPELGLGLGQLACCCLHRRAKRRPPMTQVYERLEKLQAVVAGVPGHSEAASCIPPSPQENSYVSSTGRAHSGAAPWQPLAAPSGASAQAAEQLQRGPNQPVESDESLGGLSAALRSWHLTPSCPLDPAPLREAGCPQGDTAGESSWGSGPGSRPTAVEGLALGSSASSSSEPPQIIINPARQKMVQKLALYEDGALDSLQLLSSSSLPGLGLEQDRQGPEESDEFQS

With `CS(=O)(=O)CCCn1/c(=N/C(=O)c2cccc(C(F)F)c2)[nH]c2cc(N3CCOCC3=O)ccc21` [Compound 90, (E)-3-(difluoromethyl)-N-(1-(3-(methylsulfonyl)propyl)-5-(3-oxomorpholino)-1H-benzo[d]imidazol-2(3H)-ylidene)benzamide], the IC50 on IRAK1 and on IRAK4 was at most 100 nM in each case.
Regarding `C[S+]([O-])CCCn1/c(=N/C(=O)c2cccc(C(F)F)c2)[nH]c2cc(N3CCOCC3=O)ccc21` (stereo not shown) [Compound 91, (E)-3-(difluoromethyl)-N-(1-(3-(methylsulfinyl)propyl)-5-(3-oxomorpholino)-1H-benzo[d]imidazol-2(3H)-ylidene)benzamide], the IC50 at IRAK1 was 100 to 1000 nM; on IRAK4, at most 100 nM.
The corresponding values for `CSCCCn1/c(=N/C(=O)c2cccc(C(F)F)c2)[nH]c2cc(N3CCOCC3=O)ccc21` [Compound 92, (E)-3-(difluoromethyl)-N-(1-(3-(methylthio)propyl)-5-(3-oxomorpholino)-1H-benzo[d]imidazol-2(3H)-ylidene)benzamide] are 100 to 1000 nM and at most 100 nM.
On to `CS(=O)(=O)CCn1/c(=N/C(=O)c2cccc(C(F)F)c2)[nH]c2cc(N3CCOCC3=O)ccc21` [Compound 93, (E)-3-(difluoromethyl)-N-(1-(2-(methylsulfonyl)ethyl)-5-(3-oxomorpholino)-1H-benzo[d]imidazol-2(3H)-ylidene)benzamide], for which the IC50 on IRAK1 and at IRAK4 was at most 100 nM throughout.
Turning to `C[S+]([O-])CCn1/c(=N/C(=O)c2cccc(C(F)F)c2)[nH]c2cc(N3CCOCC3=O)ccc21` (stereo not shown) [Compound 94, (E)-3-(difluoromethyl)-N-(1-(2-(methylsulfinyl)ethyl)-5-(3-oxomorpholino)-1H-benzo[d]imidazol-2(3H)-ylidene)benzamide], the results for the IC50 on IRAK1 and at IRAK4 were 100 to 1000 nM and at most 100 nM, respectively.
For `CNS(=O)(=O)c1cccc(C(=O)/N=c2\[nH]c3cc(N4CCOCC4=O)ccc3n2CCCO)c1` [Compound 97, (E)-N-(1-(3-hydroxypropyl)-5-(3-oxomorpholino)-1H-benzo[d]imidazol-2(3H)-ylidene)-3-(N-methylsulfamoyl)benzamide], in that order: at most 100 nM and at most 100 nM.
Regarding `NS(=O)(=O)c1cccc(C(=O)/N=c2\[nH]c3cc(N4CCOCC4=O)ccc3n2CCCO)c1` [Compound 100, (E)-N-(1-(3-hydroxypropyl)-5-(3-oxomorpholino)-1H-benzo[d]imidazol-2(3H)-ylidene)-3-sulfamoylbenzamide], the IC50 at IRAK1 and on IRAK4 was at most 100 nM in each case.
As to `CN(C)S(=O)(=O)c1cccc(C(=O)/N=c2\[nH]c3cc(N4CCOCC4=O)ccc3n2CCCO)c1` [Compound 101, (E)-3-(N,N-dimethylsulfamoyl)-N-(1-(3-hydroxypropyl)-5-(3-oxomorpholino)-1H-benzo[d]imidazol-2(3H)-ylidene)benzamide], the IC50 on IRAK1 was 100 to 1000 nM; at IRAK4 it was at most 100 nM.
For the compound `O=C(/N=c1\[nH]c2cc(N3CCOCC3=O)ccc2n1CCCO)c1ccc2nc[nH]c2c1` [Compound 102, (E)-N-(1-(3-hydroxypropyl)-5-(3-oxomorpholino)-1H-benzo[d]imidazol-2(3H)-ylidene)-1H-benzo[d]imidazole-6-carboxamide], the IC50 at IRAK1 and on IRAK4 was above 1000 nM each time.
Turning to `CC(F)(F)c1cccc(C(=O)/N=c2\[nH]c3cc(N4CCOCC4=O)ccc3n2CCCO)c1` [Compound 103, (E)-3-(1,1-difluoroethyl)-N-(1-(3-hydroxypropyl)-5-(3-oxomorpholino)-1H-benzo[d]imidazol-2(3H)-ylidene)benzamide], the values for the IC50 on IRAK1 and at IRAK4 were 100 to 1000 nM and at most 100 nM, respectively.
On to `O=C(/N=c1\[nH]c2cc(N3CCOCC3=O)ccc2n1CCCO)c1cccc(CF)c1` [Compound 104, (E)-3-(fluoromethyl)-N-(1-(3-hydroxypropyl)-5-(3-oxomorpholino)-1H-benzo[d]imidazol-2(3H)-ylidene)benzamide], for which the IC50 on IRAK1 is 100 to 1000 nM; on IRAK4, at most 100 nM.
The corresponding values for `Cc1cccc(C(=O)/N=c2\[nH]c3cc(N4CCOCC4=O)ccc3n2CCCO)c1` [Compound 105, (E)-N-(1-(3-hydroxypropyl)-5-(3-oxomorpholino)-1H-benzo[d]imidazol-2(3H)-ylidene)-3-methylbenzamide] are 100 to 1000 nM and at most 100 nM.
As to `O=C(/N=c1\[nH]c2cc(N3CCOCC3=O)ccc2n1CCCO)c1cccc(Cl)c1` [Compound 106, (E)-3-chloro-N-(1-(3-hydroxypropyl)-5-(3-oxomorpholino)-1H-benzo[d]imidazol-2(3H)-ylidene)benzamide], the figures for the IC50 on IRAK1 and on IRAK4 were 100 to 1000 nM and at most 100 nM, respectively.
Turning to `O=C(/N=c1\[nH]c2cc(N3CCOCC3=O)ccc2n1CCCO)c1cccc(-c2cc[nH]c(=O)c2)c1` [Compound 107, (E)-N-(1-(3-hydroxypropyl)-5-(3-oxomorpholino)-1H-benzo[d]imidazol-2(3H)-ylidene)-3-(2-oxo-1,2-dihydropyridin-4-yl)benzamide], the IC50 on IRAK1 and on IRAK4 was at most 100 nM each time.
For `O=C(/N=c1\[nH]c2cc(N3CCNCC3=O)ccc2n1CCCO)c1cccc(C(F)(F)F)c1` [Compound 108, (E)-N-(1-(3-hydroxypropyl)-5-(2-oxopiperazin-1-yl)-1H-benzo[d]imidazol-2(3H)-ylidene)-3-(trifluoromethyl)benzamide], the IC50 on IRAK1 and on IRAK4 was at most 100 nM in each case.
Consider `O=C(/N=c1\[nH]c2cc(N3CCNCC3=O)ccc2n1CCCO)c1cccc(C(F)F)c1` [Compound 109, (E)-3-(difluoromethyl)-N-(1-(3-hydroxypropyl)-5-(2-oxopiperazin-1-yl)-1H-benzo[d]imidazol-2(3H)-ylidene)benzamide], for which the IC50 at IRAK1 is 100 to 1000 nM; on IRAK4 it was at most 100 nM.
`CC(=O)N1CCN(c2ccc3c(c2)[nH]/c(=N\C(=O)c2cccc(C(F)F)c2)n3CCCO)C(=O)C1` [Compound 110, (E)-N-(5-(4-acetyl-2-oxopiperazin-1-yl)-(1-(3-hydroxypropyl)-1H-benzo[d]imidazol-2(3H)-ylidene))-3-(difluoromethyl)benzamide]: the IC50 at IRAK1 and at IRAK4 was at most 100 nM in each case.
For `CN1CCN(c2ccc3c(c2)[nH]/c(=N\C(=O)c2cccc(C(F)F)c2)n3CCCO)C(=O)C1` [Compound 111, (E)-3-(difluoromethyl)-N-(1-(3-hydroxypropyl)-5-(4-methyl-2-oxopiperazin-1-yl)-1H-benzo[d]imidazol-2(3H)-ylidene)benzamide], the IC50 at IRAK1 was 100 to 1000 nM; at IRAK4 it was at most 100 nM.
The corresponding values for `O=C(/N=c1\[nH]c2cc(N3CCN(CC4CC4)CC3=O)ccc2n1CCCO)c1cccc(C(F)F)c1` [Compound 112, (E)-N-(5-(4-(cyclopropylmethyl)-2-oxopiperazin-1-yl)-1-(3-hydroxypropyl)-1H-benzo[d]imidazol-2(3H)-ylidene)-3-(difluoromethyl)benzamide] are at most 100 nM and at most 100 nM.
The corresponding values for `O=C(/N=c1\[nH]c2cc(N3CCN(CC(F)(F)F)CC3=O)ccc2n1CCCO)c1cccc(C(F)F)c1` [Compound 113, (E)-3-(difluoromethyl)-N-(1-(3-hydroxypropyl)-5-(2-oxo-4-(2,2,2-trifluoroethyl)piperazin-1-yl)-1H-benzo[d]imidazol-2(3H)-ylidene)benzamide] are 100 to 1000 nM and at most 100 nM.
As to `O=C(/N=c1\[nH]c2cc(N3CCOCC3=O)ccc2n1C1(CCO)CCCCC1)c1cccc(C(F)(F)F)c1` [Compound 114, (E)-N-(1-(1-(2-hydroxyethyl)cyclohexyl)-5-(3-oxomorpholino)-1H-benzo[d]imidazol-2(3H)-ylidene)-3-(trifluoromethyl)benzamide], the IC50 on IRAK1 and on IRAK4 was above 1000 nM throughout.
For `O=C(/N=c1\[nH]c2cc(N3CCOCC3=O)ccc2n1C1(CCO)CCCCC1)c1cccc(C(F)F)c1` [Compound 115, (E)-3-(difluoromethyl)-N-(1-(1-(2-hydroxyethyl)cyclohexyl)-5-(3-oxomorpholino)-1H-benzo[d]imidazol-2(3H)-ylidene)benzamide], the IC50 at IRAK1 is above 1000 nM; on IRAK4, 100 to 1000 nM.
In the case of `O=C(/N=c1\[nH]c2cc(N3CCOCC3=O)ccc2n1C1CCCC(CO)C1)c1cccc(C(F)(F)F)c1` (stereo not shown) [Compound 120, (E)-N-(1-(3-(hydroxymethyl)cyclohexyl)-5-(3-oxomorpholino)-1H-benzo[d]imidazol-2(3H)-ylidene)-3-(trifluoromethyl)benzamide], the IC50 is 100 to 1000 nM at IRAK1 and at most 100 nM at IRAK4.
